Test results: US20020026052A1, “3-cyanoquinolines, 3-cyano-1,6-naphthyridines, and 3-cyano-1,7-naphthyridines as protein kinase inhibitors” (American Home Products Corporation, priority 2000, published 2002)
Where “and” joins values, the source holds several entries; their conditions need not be identical. Equal values may be shown once.

Legend:
[1] = biological target: Rat2 fibroblasts stably transformed with v-Src/Hu c-Src fusion gene (Homo sapiens, UniProt P12931, cells depend on it, form not given); assay: Anchorage Independent Src-transformed Fibroblast Proliferation Assay; type: cell-based, Rat; settings: suspension growth, MTS reagent on Day 5; read-out: anch-indep src-tx fib IC50
Sequence of Rat2 fibroblasts stably transformed with v-Src/Hu c-Src fusion gene (P12931 whole entry, change not shown, the tested form may be a part): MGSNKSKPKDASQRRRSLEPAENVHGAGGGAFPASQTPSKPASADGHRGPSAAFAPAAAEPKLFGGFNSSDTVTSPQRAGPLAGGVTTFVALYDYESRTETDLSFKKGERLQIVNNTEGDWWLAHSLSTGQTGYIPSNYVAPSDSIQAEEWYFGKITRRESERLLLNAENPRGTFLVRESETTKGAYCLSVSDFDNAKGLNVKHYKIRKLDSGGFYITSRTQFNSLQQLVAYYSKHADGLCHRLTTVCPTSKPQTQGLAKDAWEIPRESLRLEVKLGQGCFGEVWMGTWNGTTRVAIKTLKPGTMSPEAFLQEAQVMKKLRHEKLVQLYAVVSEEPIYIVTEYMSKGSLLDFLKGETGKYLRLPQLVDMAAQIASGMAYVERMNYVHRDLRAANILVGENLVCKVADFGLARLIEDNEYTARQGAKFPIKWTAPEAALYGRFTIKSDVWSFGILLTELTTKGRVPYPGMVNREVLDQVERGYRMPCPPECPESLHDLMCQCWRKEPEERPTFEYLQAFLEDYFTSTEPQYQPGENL
Procedure: Anchorage Independent Src-transformed Fibroblast Proliferation Assay
Rat2 fibroblasts stably transformed with a plasmid containing a CMV promotor controlled v-Src/Hu c-Src fusion gene in which the catalytic domain of human c-Src was inserted in place of the v-Src catalytic domain in the v-Src gene are used for the measurement of src dependent suspension growth. […] Multiple entries for a given compound indicate that it was tested multiple times.

melting point | GI50 [1] | SMILES
110 to 115 °C | 90 nM | COc1ccc(Cl)c(Nc2c(C#N)cnc3cc(-c4csc(CN5CCOCC5)c4)ccc23)c1 [Example 131, 4-(2-Chloro-5-methoxyanilino)-7-[5-(4-morpholinylmethyl)-3-thienyl]-3-quinolinecarbonitrie]
223 to 225 °C | > 10000 nM | COc1cc(Nc2c(C#N)cnc3cc(C#Cc4ccc(C)cc4)ccc23)c(Cl)cc1Cl [Example 141, 4-(2,4-Dichloro-5-methoxyanilino)-7-[2-(4-methylphenyl)ethynyl]-3-quinolinecarbonitrile]
235 °C (dec.) | 2500 nM | COc1cc(Nc2c(C#N)cnc3cc(-c4ccc(CN5CCCC(C(=O)O)C5)cc4)ccc23)c(Cl)cc1Cl (stereo not shown) [Example 149, 1-(4-{3-Cyano-4-[(2,4-dichloro-5-methoxyphenyl)amino]-7-quinolinyl}benzyl)-3-piperidinecarboxylic acid]
– | > 10000 nM | COc1cc(Nc2c(C#N)cnc3cc(/C=C/c4ccccc4)ccc23)c(Cl)cc1Cl [Example 139, 4-(2,4-Dichloro-5-methoxyanilino)-7-[(E)-2-phenylethenyl]-3-quinolinecarbonitrile]
118 to 125 °C | 40 nM and 30 nM | COc1cc(Nc2c(C#N)cnc3cc(-c4cc(CN5CCOCC5)c(CN5CCOCC5)s4)ccc23)c(Cl)cc1Cl [Example 20, 7-[4,5-Bis(4-morpholinylmethyl)-2-thienyl]-4-(2,4-dichloro-5-methoxyanilino)-3-quinolinecarbonitrile]
278 to 280 °C | 390 nM | COC(=O)C1CCN(Cc2ccc(-c3ccc4c(Nc5cc(OC)c(Cl)cc5Cl)c(C#N)cnc4c3)cc2)CC1 [Example 231, Methyl 1-{4-[3-cyano-4-(2,4-dichloro-5-methoxyanilino)-7-quinolinyl]benzyl}-4-piperidinecarboxylate]
– | 12700 nM and 10600 nM | COc1cc(Nc2c(C#N)cnc3cc(-c4cccc(CCN5CCOCC5)c4)c(OC)cc23)c(Cl)cc1Cl [Example 38, 4-(2,4-Dichloro-5-methoxyanilino)-6-methoxy-7-{3-[2-(4-morpholinyl)ethyl]phenyl}-3-quinolinecarbonitrile]
– | 560 nM | COc1cc(Nc2c(C#N)cnc3cc(-c4ccc[nH]4)ccc23)c(Cl)cc1Cl [Example 104, 4-(2,4-Dichloro-5-methoxyanilino)-7-(1H-pyrrol-2-yl)-3-quinolinecarbonitrile]
– | > 10000 nM | COc1cc(Nc2c(C#N)cnc3cc(-c4ccccc4C=O)ccc23)c(Cl)cc1Cl [Example 114, 4-(2,4-Dichloro-5-methoxyanilino)-7-(2-formylphenyl)-3-quinolinecarbonittile]
182 to 184 °C | 900 nM | CCN1CCN(Cc2cc(-c3ccc4c(Nc5ccc(Cl)cc5Cl)c(C#N)cnc4c3)cs2)CC1 [Example 10, 4-(2,4-Dichloroanilino)-7-{5-[(4-ethyl-1-piperazinyl)methyl]-3-thienyl}-3-quinolinecarbonitrile]
191 to 195 °C | 220 nM | CCN(CC)Cc1ccc(-c2ccc3c(Nc4cc(OC)c(Cl)cc4Cl)c(C#N)cnc3c2)cc1 [Example 87, 4-(2,4-Dichloro-5-methoxyanilino)-7-{4-[(diethylamino)methyl]phenyl}-3-quinolinecarbonitrile]
67 to 70 °C | 2100 nM | CCOC(=O)C1CCCN(Cc2ccc(-c3ccc4c(Nc5cc(OC)c(Cl)cc5Cl)c(C#N)cnc4c3)cc2)C1 (stereo not shown) [Example 148, Ethyl 1-(4-{3-cyano-4-[(2,4-dichloro-5-methoxyphenyl)amino]-7-quinolinyl}benzyl)-3-piperidinecarboxylate]
– | 1020 nM | COc1cc(Nc2c(C#N)cnc3cc(-c4ccc(CCN5CCOCC5)cc4)ccc23)c(Cl)cc1Cl [Example 27, 4-(2,4-Dichloro-5-methoxyanilino)-7-{4-[2-(4-morpholinyl)ethyl]phenyl}-3-quinolinecarbonitrile]
168 to 170 °C | 80 nM | COc1cc(Nc2c(C#N)cnc3cc(-c4csc(CN5CCOCC5)c4)ccc23)c(Cl)cc1C [Example 80, 4-(2-chloro-5-methoxy-4-methylanilino)-7-[5-(4-morpholinylmethyl)-3-thienyl]-3-quinolinecarbonitrile]
208 to 210 °C | 6000 nM | COc1cc(Nc2c(C#N)cnc3cc(-c4ccc(CN5CCOCC5)n4C)ccc23)c(Cl)cc1Cl [Example 70, 4-(2,4-Dichloro-5-methoxyanilino)-7-[1-methyl-5-(4-morpholinylmethyl)-1H-pyrrol-2-yl]-3-quinolinecarbonitrile]
– | > 10000 nM | COc1cc(Nc2c(C#N)cnc3cc(-c4cscc4CN4CCOCC4)ccc23)c(Cl)cc1Cl [Example 65, 4-(2,4-Dichloro-5-methoxyanilino)-7-[4-(4-morpholinylmethyl)-3-thienyl]-3-quinolinecarbonitrile]
– | 540 nM and 500 nM | COc1cc(Nc2c(C#N)cnc3cc(-c4ccc(CN5CCOCC5)cc4)ccc23)c(Cl)cc1Cl [Example 29, 4-(2,4-Dichloro-5-methoxyanilino)-7-[4-(4-morpholinylmethyl)phenyl]-3-quinolinecarbonitrile]

melting point | GI50 [1] | SMILES
– | 140 nM | COc1cc(Nc2c(C#N)cnc3cc(-c4ccc(CN5CCCCC5)s4)ccc23)c(Cl)cc1Cl [Example 78, 4-(2,4-Dichloro-5-methoxyanilino)-7-[5-(1-piperidinylmethyl)-2-thienyl]-3-quinolinecarbonitrile]
– | 1400 nM | COc1cc(Nc2c(C#N)cnc3cc(-c4cccc(CN5CCN(C)CC5)c4)ccc23)c(Cl)cc1Cl [Example 113, 4-(2,4-dichloro-5-methoxyanilino)-7-{3-[(4-methyl-1-piperazinyl)methyl]phenyl}-3-quinolinecarbonitrile]
– | 180 nM | COc1cc(Nc2c(C#N)cnc3cc(-c4csc(CN5CCOCC5)c4)ccc23)c(Cl)cc1Cl [Example 24, 4-(2,4-Dichloro-5-methoxyanilino)-7-[5-(4-morpholinylmethyl)-3-thienyl]-3-quinolinecarbonitrile]
– | 2000 nM and 1900 nM | CCN1CCN(CCc2ccc(-c3ccc4c(Nc5cc(OC)c(Cl)cc5Cl)c(C#N)cnc4c3)cc2)CC1 [Example 32, 4-(2,4-Dichloro-5-methoxyanilino)-7-{4-[2-(4-ethyl-1-piperazinyl)ethyl]phenyl}-3-quinolinecarbonitrile]
– | 120 nM | COc1cc(Nc2c(C#N)cnc3cc(-c4cc(CN5CCOCC5)cs4)ccc23)c(Cl)cc1Cl [Example 68, 4-(2,4-Dichloro-5-methoxyanilino)-7-[4-(4-morpholinylmethyl)-2-thienyl]-3-quinolinecarbonitrile]
– | 4100 nM | COc1cc(Nc2c(C#N)cnc3cc(-c4cccc(CCN5CCOCC5)c4)ccc23)c(Cl)cc1Cl [Example 28, 4-(2,4-Dichloro-5-methoxyanilino)-7-{3-[2-(4-morpholinyl)ethyl]phenyl}-3-quinolinecarbonitrile]
– | > 10000 nM | COc1cc(Nc2c(C#N)cnc3cc(C#Cc4ccccc4)ccc23)c(Cl)cc1Cl [Example 140, 4-(2,4-Dichloro-5-methoxyanilino)-7-(2-phenylethynyl)-3-quinolinecarbonitrile]
– | 1590 nM and 1490 nM | COc1cc(Nc2c(C#N)cnc3cc(-c4ccc(CN5CCOCC5)cc4)c(OC)cc23)c(Cl)cc1Cl [Example 37, 4-(2,4-Dichloro-5-methoxyanilino)-6-methoxy-7-[4-(4-morpholinylmethyl)phenyl]-3-quinolinecarbonitrile]
– | > 10000 nM | COc1cc(Nc2c(C#N)cnc3cc(C#Cc4ccccn4)ccc23)c(Cl)cc1Cl [Example 91, 4-(2,4-Dichloro-5-methoxyanilino)-7-[2-(2-pyridinyl)ethynyl]-3-quinolinecarbonitrile]
– | 160 nM | CCN1CCN(Cc2cc(-c3ccc4c(Nc5cc(OC)c(Cl)cc5Cl)c(C#N)cnc4c3)cs2)CC1 [Example 19, 4-(2,4-dichloro-5-methoxyanilino)-7-{5-[(4-ethyl-1-piperazinyl)methyl]-3-thienyl}-3-quinolinecarbonitrile]
– | > 10000 nM | COc1cc(Nc2c(C#N)cnc3cc(-c4ccccc4CN4CCOCC4)ccc23)c(Cl)cc1Cl [Example 115, 4-(2,4-Dichloro-5-methoxyanilino)-7-[2-(4-morpholinylmethyl)phenyl]-3-quinolinecarbonitrile]
– | > 10000 nM | COc1cc(Nc2c(C#N)cnc3cc(-c4ccsc4CN4CCOCC4)ccc23)c(Cl)cc1Cl [Example 66, 4-(2,4-Dichloro-5-methoxyanilino)-7-[2-(4-morpholinylmethyl)-3-thienyl]-3-quinolinecarbonitrile]
– | > 10000 nM | COc1cc(Nc2c(C#N)cnc3cc(-c4ccc(CNCCS(=O)(=O)c5ccccc5)n4C)ccc23)c(Cl)cc1Cl [Example 72, 4-(2,4-dichloro-5-methoxyanilino)-7-[1-methyl-5-({[2-(phenylsulfonyl)ethyl]amino}methyl)-1H-pyrrol-2-yl]-3-quinolinecarbonitrile]
– | 170 nM | COc1cc(Nc2c(C#N)cnc3cc(-c4csc(CN5CCC(O)CC5)c4)ccc23)c(Cl)cc1Cl [Example 192, 4-(2,4-Dichloro-5-methoxyanilino)-7-{5-[(4-hydroxy-1-piperidinyl)methyl]-3-thienyl}-3-quinolinecarbonitrile]
– | 90 nM | COc1cc(Nc2c(C#N)cnc3cc(-c4ccc(CN5CCOCC5)s4)ccc23)c(Cl)cc1Cl [Example 23, 4-(2,4-Dichloro-5-methoxyanilino)-7-[5-(4-morpholinylmethyl)-2-thienyl]-3-quinolinecarbonitrile]
160 to 163 °C | – | Cn1ccnc1Sc1ccc(Nc2c(C#N)cnc3cc(-c4ccc(CN5CCN(CCO)CC5)cn4)ccc23)cc1Cl [Example 217, 4-({3-chloro-4-[(1-methyl-1H-imidazol-2-yl)sulfanyl]phenyl}amino)-7-(5-{[4-(2-hydroxy-ethyl)-1-piperazinyl]-methyl}-2-pyridinyl)-3-quinolinecarbonitrile]
